Measured values taken from patent US20190367737A1, “CELL-PENETRATING FLUORESCENT DYES WITH SECONDARY ALCOHOL FUNCTIONALITIES” (Max-Planck-Gesellschaft zur foerderung der Wissenschaften …, priority 2016, published 2019).
Values joined by “and” are separate entries in the source; they are usually repeats but may differ in a detail not shown here. Identical values can stand only once. Like-named read-outs stand apart in the source and are kept apart here. Blank lines part the entries; values can stand above or below the molecule they belong to.

Experiments:
[1] = Formation and stability of the NHS ester; type: physicochemical
Procedure: • Three stock solutions (A, B and C) were prepared. Solution A: 22 mg HATU (1-[bis(dimethylamino)methylene]-1H-1,2,3-triazolo[4,5-b]pyridinium 3-oxid hexafluorophosphate) in dry DMF (0.10 mL); solution B: Et3N (10 mg) in dry DMF (0.10 mL); solution C: N-hydroxysuccinimide (19 mg) in dry DMF (0.10 mL). To a solution of dye 5 (1.7 mg, 2.6 μmol) in dry DMF (0.10 mL), solutions A, B and C were added successively (14 μL of each solutions) under argon, and the mixture was stirred for 30 min at room temperature. HPLC analysis indicated the conversion degree of 94-95%. […] After removing DMF in vacuo, amide 5-Halo was isolated by preparative HPLC (˜1 mg, 46%), dissolved in DMSO (400 μL), and this stock-solution was used (after dilution with aqueous PBS to 1-5 μM) in labeling experiments with living cells (see section with imaging results). ESI-MS (C41H44C1F6N308, 855.27), positive mode: m/z (rel. int., %)=856 (100) [M+H]^+. HR-MS, ESI (positive mode): m/z=878.2591 (found [M+Na]^+), 878.2613 (calc.).

[2] = cited from earlier work
[3] = Absorption, emission and fluorescence quantum yield of the dyes; type: physicochemical; conditions: for fluorescence quantum yield relative to Oxazine 1: PBS 7.4, Oxazine 1 Φfl=0.14 in ethanol; for fluorescence quantum yield: in PBS / aqueous buffers
Procedure: Absorption spectra were recorded with a Varian Cary 4000 UV-Vis double-beam spectrophotometer (Agilent Technologies, USA). For the determination of the absorption spectra, quartz cells with a 1 cm path length were used. Emission spectra and fluorescence quantum yield were obtained on a Quantaurus-QY Absolute PL quantum yield spectrometer C11347 (Hamamatsu Photonics, Japan) or on a Varian Cary Eclipse fluorescence spectrometer (Agilent Technologies, USA).

[4] = Solubility in water and organic solvents; type: physicochemical; conditions: water, aqueous solutions, alcohols, DMSO, DMF, organic solvents as stated
[5] = system: vimentin-HaloTag fusion protein in U2OS cells; experiment: Live-cell labeling, confocal and STED imaging, U2OS cells; type: cell-based; conditions: 1 μM, 20 minutes at 37° C.
Procedure: (§1) Either HeLa or U2OS cells were used. Cells were grown on #1.5 coverslips and cultured at 37° C. with 5% CO2 in DMEM (Dulbecco's modified Eagle's medium) supplemented with 10% FBS (fetal bovine serum), 1% sodium pyruvate and 1% penicillin/streptomycin. The U2OS cell line is a stable cell line which has a stable expression of the vimentin-HaloTag fusion protein (M. Ratz, I. Testa, S. W. Hell, S. Jakobs, Sci. Rep. 2015, 5, 9592). For the expression of vimentin-HaloTag fusion protein in HeLa cells, cells were transfected with 3 μg DNA/well using TurboFect™ Transfection Reagent (Fermentas/Thermo Scientific™, Life Technologies brand) in a 6 well plate. […]
(§2) Fluorescence detection was done in two spectral detection channels, 605-625 nm and 650-720 nm. […]
14a-Halo was excited with a pulsed 561 nm laser and fluorescence was detected in both detection windows: 605-625 nm and 650-720 nm. […] For the STED image the fluorescence counts of 3 scans per line were accumulated with a pixel dwell time of 15 μs. […]
6-ROX-Halo was excited with a pulsed 561 nm laser and fluorescence was detected in two detection windows: 605-625 nm and 650-720 nm. […] For the STED image the fluorescence counts of 3 scans per line were accumulated with a pixel dwell time of 15 μs. […]
19-Halo was excited with a pulsed 640 nm laser and fluorescence was detected from 650-720 nm. […]

[6] = D0.5 in 1,4-dioxane/water (closing into colorless spirolactone form); type: physicochemical
[7] = system: tubulin filaments in HeLa cells; experiment: Live-cell tubulin labeling, confocal and STED imaging, HeLa cells; type: cell-based; conditions: 1-5 μM, 20 minutes at 37° C.
Procedure: as §1, §2
19-Tubulin was excited with a pulsed 640 nm laser and fluorescence was detected from 650-720 nm. […] For the STED image the fluorescence counts of 4 scans per line were accumulated with a pixel dwell time of 7 μs. […]
33-Tubulin was excited with a pulsed 640 nm laser and fluorescence was detected from 650-720 nm. […] The STED image was recorded with a pixel dwell time of 15 μs. […]

[8] = aqueous PBS buffer, parent Q-rhodamine
[9] = aqueous solutions, dye 5 isomer 3
[10] = commercial dyes, solvent not stated

Molecule: 5(6)-carboxy-Q-rhodamine
stability of N-hydroxysuccinimidyl (NHS) ester [1]: does not form a stable N-hydroxysuccinimidyl ester
absorption maximum [2, 8]: 540 nm
emission maximum [2, 8]: 561 nm
extinction coefficient ε [2, 8]: 70 000 M^−1 cm^−1
fluorescence quantum yield [2, 8]: 0.79

absorption maximum λmax [3, 9]: 532 nm
emission maximum λmax [3, 9]: 553 nm
extinction coefficient ε [3, 9]: 56000 M⁻¹ cm⁻¹
fluorescence quantum yield Φfl, absolute value ([3]; aqueous solutions, excitation at 488 nm, dye 5 isomer 3): 0.89
stability of N-hydroxysuccinimidyl (NHS) ester [1]: forms a stable NHS ester
solubility [4]: water-soluble
solubility ([4]; listed as 5-OH): much better soluble
Molecule: O=C(O)c1ccc(C(=O)[O-])c(C2=c3cc4c(cc3Oc3cc5c(cc32)CC(O)CN5CC(F)(F)F)=[N+](CC(F)(F)F)CC(O)C4)c1 (stereo not drawn) [Compound 5, N,N′-Bis-(2,2,2-trifluoroethyl)-6′-carboxy-Q-rhodamine-β,β′-diol]

Molecule: COc1cc2c(c(Cl)c1O)Oc1c(cc(OC)c(O)c1Cl)C21OC(=O)c2ccc(C(=O)O)cc21 [Compound 6-JOE, 6-JOE]
absorption maximum [2, 10]: 520 nm
emission maximum [2, 10]: 548 nm
extinction coefficient ε [2, 10]: 75 000 M^−1 cm^−1

Molecule: CN(C)c1ccc2[c](c1)[Ge]([CH3])([CH3])[c]1cc(N(C)C)ccc1C21OC(=O)c2ccc(C(=O)NCCOCCOCCCCCCCl)cc21 [Compound 19-Halo]
imaging performance in living cells (confocal and STED) [5]: high contrast images

Molecule: CN(C)c1ccc2[c](c1)[Ge]([CH3])([CH3])[c]1cc(N(C)C)ccc1C21OC(=O)c2ccc(C(=O)O)cc21 [Compound 19]
fluorescence quantum yield relative to Oxazine 1 [3]: 0.43
absorption maximum λmax ([3]; PBS buffer pH 7.4): 634 nm
emission maximum λem ([3]; PBS buffer pH 7.4): 655 nm
extinction coefficient ε ([3]; PBS buffer pH 7.4): 97000 M⁻¹ cm⁻¹
fluorescence quantum yield [3]: 0.43
D0.5 in 1,4-dioxane/water [6]: 65.2

Molecule: [CH3][Ge]1([CH3])[c]2cc(N3CC(O)C3)ccc2C2(OC(=O)c3ccc(C(=O)NCCOCCOCCCCCCCl)cc32)c2ccc(N3CC(O)C3)c[c]21 [Compound 33-Halo]
absorption maximum λmax ([3]; PBS buffer pH 7.4): 639 nm
emission maximum λem ([3]; PBS buffer pH 7.4): 660 nm

Molecule: [CH3][Ge]1([CH3])[c]2cc(N3CC(O)C3)ccc2C2(OC(=O)c3ccc(C(=O)O)cc32)c2ccc(N3CC(O)C3)c[c]21 [Compound 33]
absorption maximum λmax ([3]; PBS buffer pH 7.4): 631 nm
emission maximum λem ([3]; PBS buffer pH 7.4): 651 nm
extinction coefficient ε ([3]; PBS buffer pH 7.4): 61000 M⁻¹ cm⁻¹
fluorescence quantum yield Φfl, absolute value ([3]; PBS buffer pH 7.4): 0.60
fluorescence quantum yield [3]: 0.60
imaging performance in living cells (confocal and STED) [7]: higher brightness

Molecule: C[Si]1(C)c2cc(N3CC(O)C3)ccc2C2(OC(=O)c3ccc(C(=O)O)cc32)c2ccc(N3CC(O)C3)cc21 [Compound 42]
fluorescence quantum yield relative to Oxazine 1 [3]: 0.42
absorption maximum λmax ([3]; PBS buffer pH 7.4): 641 nm
emission maximum λem ([3]; PBS buffer pH 7.4): 662 nm
extinction coefficient ε ([3]; PBS buffer pH 7.4): 51500 M⁻¹ cm⁻¹ and 51000 M⁻¹ cm⁻¹
fluorescence quantum yield [3]: 0.42
D0.5 in 1,4-dioxane/water [6]: 72.4

fluorescence quantum yield [3]: 0.54
Molecule: C[Si]1(C)c2cc(N3CCC3)ccc2C2(OC(=O)c3ccccc32)c2ccc(N3CCC3)cc21 [JF646, reference compound]

Molecule: O=C(O)c1ccccc1C1=c2cc3c4c(c2Oc2c1cc1c5c2CCCN5CCC1)CCC[N+]=4CCC3.[Cl-] [Rhodamine 101]
fluorescence quantum yield ([2]; in both organic and aqueous solutions): more than 0.90

absorption maximum λmax ([3]; PBS buffer pH 7.4): 645 nm
emission maximum λem ([3]; PBS buffer pH 7.4): 661 nm
extinction coefficient ε ([3]; PBS buffer pH 7.4): 93000 M⁻¹ cm⁻¹
fluorescence quantum yield [3]: 0.41
D0.5 in 1,4-dioxane/water [6]: 64.5
Molecule: CN(C)c1ccc2c(c1)[Si](C)(C)c1cc(N(C)C)ccc1C21OC(=O)c2ccccc21 [SiR, reference compound]

stability of N-hydroxysuccinimidyl (NHS) ester [1]: stable
Molecule: N-Hydroxysuccinimidyl eater of N,N′-bis-(2,2,2-trifluoro-ethyl)-6′-carboxy-Q-rhodamine-β,β′-diol [Compound 5-NHS]
